Values of other authors in patent US20080176787A1, “Parathyroid hormone analogues and methods of use” (priority 2005, published 2008).
Where two headings read alike, the source gives them in different places. Marks after values point to notes of the source that are not given here.

Columns and labels:
[1] = system: rats; conditions: rat, in vivo; cited from earlier work
[2] = system: postmenopausal women (with prior vertebral fractures); conditions: cited from earlier work; for hypercalcemia seen at least once, % of subjects: average of 19 months (placebo 2%)
[3] = system: OVX adult Cynomolgus monkeys; conditions: Humerus Mid-Diaphysis, F, 18 months, cited from earlier work
[4] = system: OVX adult Cynomolgus monkeys; conditions: Femoral Neck, F, 18 months, cited from earlier work
[5] = system: patients; conditions: cited from earlier work
[6] = system: monkey; conditions: cited from earlier work
[7] = 20 μg (6 months), inferred from graphed data
[8] = teriparatide 0, 0.5, 2, 10 μg/kg, 12 mth monkey

## CC[C@H](C)[C@H](NC(=O)[C@H](CCC(=O)O)NC(=O)[C@H](CO)NC(=O)[C@@H](NC(=O)[C@@H](N)CO)C(C)C)C(=O)N[C@@H](CCC(N)=O)C(=O)N[C@@H](CC(C)C)C(=O)N[C@@H](CCSC)C(=O)N[C@@H](Cc1cnc[nH]1)C(=O)N[C@@H](CC(N)=O)C(=O)N[C@@H](CC(C)C)C(=O)NCC(=O)N[C@@H](CCCCN)C(=O)N[C@@H](Cc1cnc[nH]1)C(=O)N[C@@H](CC(C)C)C(=O)N[C@@H](CC(N)=O)C(=O)N[C@@H](CO)C(=O)N[C@@H](CCSC)C(=O)N[C@@H](CCC(=O)O)C(=O)N[C@@H](CCCN=C(N)N)C(=O)N[C@H](C(=O)N[C@@H](CCC(=O)O)C(=O)N[C@@H](Cc1c[nH]c2ccccc12)C(=O)N[C@@H](CC(C)C)C(=O)N[C@@H](CCCN=C(N)N)C(=O)N[C@@H](CCCCN)C(=O)N[C@@H](CCCCN)C(=O)N[C@@H](CC(C)C)C(=O)N[C@@H](CCC(N)=O)C(=O)N[C@@H](CC(=O)O)C(=O)N[C@H](C(=O)N[C@@H](Cc1cnc[nH]1)C(=O)N[C@@H](CC(N)=O)C(=O)N[C@@H](Cc1ccccc1)C(=O)O)C(C)C)C(C)C [Forteo, hPTH-(1-34)]
[1]
  osteosarcoma in rats (warning label): increase in incidence of osteosarcoma in rats
[2]; 20 μg for at least 12 Months
  Mean % Change In Femoral Neck (BMD): 1.54%
  Mean % Change In Total Hip (BMD): 1.70%
  Mean % Change In Trochanter (BMD): 2.68%
[2]; 20 μg/day
  hypercalcemia seen at least once, % of subjects: 11%
[2]; 40 μg/day
  hypercalcemia seen at least once, % of subjects: 28%
[2]; Neer et al.
  BMD in distal and mid-shaft radius compared to placebo: decrease in BMD
[3]; 1 μg/kg/day
  % Cortical Porosity: ~15.0* %
[3]; 5 μg/kg/day
  % Cortical Porosity: ~25* %
[4]; 1 μg/kg/day
  % Cortical Porosity: 8.5 ± 0.8 %
[4]; 5 μg/kg/day
  % Cortical Porosity: 8.9 ± 0.6 %
[5]; [7]
  CTx: 3300^2 pM/L
  P1NP: 71^2 μg/L
  TH-BMD (%): 0.6^2%
[5]; 20 μg (6 months)
  FN-BMD (%): 1.02%
  LS-BMD (%): 5.2%
  Mean [Ca]: 0.075 mmol/L
[5]; in vivo
  Pts > 2.75 mmol/L: 5
  Pts > 2.75 mmol/L (sustained): 2
[6]; pre-clinical toxicity
  nephropathy: induces a mineralizing nephropathy in monkeys and possibly rats
[6]; [8]
  Free Ca: Free Ca increased
  serum neutralising antibodies: detected all doses
  tubulo-interstitial nephritis: nephritis all doses;
[6]; teriparatide, 12 mth monkey
  NoAEL: <0.5 µg/kg
